Here are results for 12 molecules from ChEMBL document CHEMBL4152222, “Structural insights into serotonin receptor ligands polypharmacology” (Eur J Med Chem, 2018).

The species named for experiment [1] is Homo sapiens. The experiment is described as follows: Selectivity index, ratio of Ki for human 5-HT1A receptor to Ki for human 5-HT6 receptor.
The target of experiment [2] is T1, 5-hydroxytryptamine receptor 1A (Homo sapiens, UniProt P08908).
T1 sequence (P08908 whole entry): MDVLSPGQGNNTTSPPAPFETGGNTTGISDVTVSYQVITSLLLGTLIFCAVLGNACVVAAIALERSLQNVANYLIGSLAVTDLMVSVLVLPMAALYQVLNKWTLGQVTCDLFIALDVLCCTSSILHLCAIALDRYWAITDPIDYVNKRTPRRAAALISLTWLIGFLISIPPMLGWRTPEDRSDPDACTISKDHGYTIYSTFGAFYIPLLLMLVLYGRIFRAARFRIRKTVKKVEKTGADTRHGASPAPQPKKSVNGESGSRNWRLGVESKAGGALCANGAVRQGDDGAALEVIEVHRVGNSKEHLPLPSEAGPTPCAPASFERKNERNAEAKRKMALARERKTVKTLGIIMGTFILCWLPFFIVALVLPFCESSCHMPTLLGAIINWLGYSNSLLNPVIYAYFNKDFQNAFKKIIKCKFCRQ
The experiment is described as follows: Displacement of [3H]-8-OH-DPAT from human 5-HT1A receptor expressed in HEK293 cell membranes after 1 hr by microbeta TopCount analysis.

For experiment [3], the species on record is Homo sapiens. The experiment is described as follows: Selectivity index, ratio of Ki for human 5-HT1A receptor to Ki for human 5-HT7B receptor.
For experiment [4], the target named is 5-hydroxytryptamine receptor 6 (Homo sapiens, UniProt P50406). The experiment is described as follows: Displacement of [3H]-LSD from human 5-HT6 receptor expressed in HEK293 cell membranes after 1 hr by microbeta TopCount analysis.
Chain of 5-hydroxytryptamine receptor 6 (P50406 whole entry): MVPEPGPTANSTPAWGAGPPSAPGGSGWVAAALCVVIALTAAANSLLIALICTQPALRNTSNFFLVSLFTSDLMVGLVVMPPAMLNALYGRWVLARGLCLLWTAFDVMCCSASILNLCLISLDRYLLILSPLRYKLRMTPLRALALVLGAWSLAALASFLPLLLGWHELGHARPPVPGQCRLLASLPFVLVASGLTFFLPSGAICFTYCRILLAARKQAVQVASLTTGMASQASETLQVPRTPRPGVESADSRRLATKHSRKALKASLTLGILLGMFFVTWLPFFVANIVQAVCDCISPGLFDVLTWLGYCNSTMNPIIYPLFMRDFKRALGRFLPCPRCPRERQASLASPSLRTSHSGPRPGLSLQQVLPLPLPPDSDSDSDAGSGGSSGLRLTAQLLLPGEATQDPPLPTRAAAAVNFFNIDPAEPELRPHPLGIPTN
For experiment [5], the target named is 5-hydroxytryptamine receptor 7 (Homo sapiens, UniProt P34969). In words: Displacement of [3H]-5-CT from human 5-HT7b receptor expressed in HEK293 cell membranes after 1 hr by microbeta TopCount analysis.
Chain of 5-hydroxytryptamine receptor 7 (P34969 whole entry): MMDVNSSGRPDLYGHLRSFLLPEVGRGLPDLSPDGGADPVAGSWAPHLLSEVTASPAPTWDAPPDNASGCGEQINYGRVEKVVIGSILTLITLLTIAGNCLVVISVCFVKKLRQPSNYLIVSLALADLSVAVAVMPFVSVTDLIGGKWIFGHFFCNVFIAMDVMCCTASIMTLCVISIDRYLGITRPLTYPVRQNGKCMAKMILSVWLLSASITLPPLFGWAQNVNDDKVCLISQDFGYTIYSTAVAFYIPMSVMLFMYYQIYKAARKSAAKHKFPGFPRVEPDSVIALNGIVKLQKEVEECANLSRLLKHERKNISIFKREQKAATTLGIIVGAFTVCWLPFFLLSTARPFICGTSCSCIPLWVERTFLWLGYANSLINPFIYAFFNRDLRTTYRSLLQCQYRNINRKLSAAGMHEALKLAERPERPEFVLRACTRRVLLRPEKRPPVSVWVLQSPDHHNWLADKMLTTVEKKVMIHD
The species named for experiment [6] is Homo sapiens. The experiment is described as follows: Selectivity index, ratio of Ki for human 5-HT7B receptor to Ki for human 5-HT6 receptor.

Take `Cc1ccc(C(C)NCCC(c2ccc(F)cc2)c2ccco2)cc1` (configuration not stated): the Ratio Ki in experiment [1] was 3; in experiment [3], 0.5; in experiment [6], 7. The inhibition constant Ki was determined as 6.1 µM in experiment [2], 1.8 µM in experiment [4] and 12.5 µM in experiment [5].
For `O=C1N(Cc2ccccc2)C(c2ccccc2)=NC1(Nc1ccccn1)C(F)(F)F` (configuration not stated), the Ratio Ki in experiment [1] is 149; in experiment [3], 3; in experiment [6], 44. The figures for the inhibition constant Ki in experiment [2], in experiment [4] and in experiment [5] were 284 µM, 1.9 µM and 84.5 µM, respectively.
Turning to `CCC1(C)CC(CCNCc2ccc(OC)c(OC)c2)(c2ccc(C)cc2)CCO1` (configuration not stated), the Ratio Ki in experiment [1] amounted to 11; in experiment [3], 1; in experiment [6], 11. For the same molecule, the Ki in experiment [2] was determined as 36.8 µM; in experiment [4], 3.4 µM; in experiment [5], 37.2 µM.
For `COc1cc(CNCCC2=CCCCC2)ccc1OCc1ccccc1`, the figures for the Ratio Ki in experiment [1], in experiment [3] and in experiment [6] were 2, 0.6 and 3, respectively. Further, the Ki in experiment [2] was 4.9 µM; in experiment [4], 2.7 µM; in experiment [5], 8 µM.
For `COc1ccc(CNCCC(c2ccco2)c2ccccc2OC)cc1` (configuration not stated), the Ratio Ki in experiment [1] stood at 2; in experiment [3], 0.6; in experiment [6], 4. Moreover, the Ki was 6.1 µM in experiment [2], 2.4 µM in experiment [4] and 10.4 µM in experiment [5].
Consider `Cc1ccc(C(CCNC(C)c2ccc(Cl)cc2)c2ccco2)cc1` (configuration not stated), for which the Ratio Ki in experiment [1] was 4; in experiment [3], 1; in experiment [6], 3. Besides, the inhibition constant Ki in experiment [2] is 9.1 µM; in experiment [4], 2.5 µM; in experiment [5], 8.4 µM.
Regarding `CCC1(C)CC(CCNCc2ccccc2)(c2ccc(C)cc2)CCO1` (configuration not stated), the results for the Ratio Ki in experiment [1], in experiment [3] and in experiment [6] were 8, 4 and 2, respectively. Moreover, the inhibition constant Ki in experiment [2] was 41.8 µM; in experiment [4], 5.6 µM; in experiment [5], 10.1 µM.
Take `Cc1ccc(COc2ccc(Br)cc2CNC(C)c2ccccc2)cc1` (configuration not stated): the Ratio Ki in experiment [1] worked out at 38; in experiment [3], 54; in experiment [6], 0.7. Further, the Ki in experiment [2] turned out to be 196 µM; in experiment [4] it was 5.1 µM; in experiment [5] it was 3.7 µM.
On to `COc1ccc(CNCCC(c2ccccc2)c2ccc3c(c2)OCO3)cc1` (configuration not stated), for which the figures for the Ratio Ki in experiment [1], in experiment [3] and in experiment [6] were 4, 1 and 4, respectively. The Ki in experiment [2] amounted to 15.6 µM; in experiment [4], 3.7 µM; in experiment [5], 14.1 µM.
For the molecule `CC(NCCC(Cc1ccccc1)c1ccco1)c1ccc(Cl)cc1` (configuration not stated), the Ratio Ki is 5 in experiment [1], 2 in experiment [3] and 3 in experiment [6]. In addition, the figures for the Ki in experiment [2], in experiment [4] and in experiment [5] were 7.1 µM, 1.4 µM and 3.8 µM, respectively.
Take `O[C@H](CCN1CCc2onc(-c3ccc(F)c(F)c3)c2C1)c1ccccc1`: the Ratio Ki in experiment [1] is 37; in experiment [3], 5; in experiment [6] it was 8. Besides, the inhibition constant (Ki) in experiment [2] is 330 µM; in experiment [4] it was 9 µM; in experiment [5] it was 71.2 µM.
Take `Cc1ccc(C(C)(C)CC(C)NCc2ccc(C(F)(F)F)cc2)o1` (configuration not stated): the figures for the Ratio Ki in experiment [1], in experiment [3] and in experiment [6] were 5, 5 and 1, respectively. Moreover, the Ki in experiment [2] was 31.4 µM; in experiment [4], 5.8 µM; in experiment [5], 6.1 µM.
